pKi: −log10 of the molar value.
Target: Indoleamine 2,3-dioxygenase 1 (Homo sapiens, UniProt P14902)
Test: Inhibition of human recombinant indoleamine-2,3-dioxygenase

Indoleamine 2,3-dioxygenase 1, sequence (P14902 whole entry): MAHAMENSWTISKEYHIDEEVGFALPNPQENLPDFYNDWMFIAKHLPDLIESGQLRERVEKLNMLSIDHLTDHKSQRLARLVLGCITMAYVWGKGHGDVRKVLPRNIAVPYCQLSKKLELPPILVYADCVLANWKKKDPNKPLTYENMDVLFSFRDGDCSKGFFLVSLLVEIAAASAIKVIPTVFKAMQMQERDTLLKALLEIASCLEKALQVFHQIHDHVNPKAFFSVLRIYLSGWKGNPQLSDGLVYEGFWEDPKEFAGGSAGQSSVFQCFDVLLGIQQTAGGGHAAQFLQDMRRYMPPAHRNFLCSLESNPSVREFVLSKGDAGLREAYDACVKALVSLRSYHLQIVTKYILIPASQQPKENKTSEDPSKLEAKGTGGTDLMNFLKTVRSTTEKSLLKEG

pKi | Structure (SMILES)
7.10 | CN(C)CCc1ccc(O)c(O)c1C1=C(C2C(=O)N(C)C(=O)N2C)C(=O)c2c(CCN)c[nH]c2C1=O (configuration not stated)
7.10 | CN1C(=O)N(C)[C@]2(Oc3c(O)cc4c(c3C3=C2C(=O)c2c(CCN)c[nH]c2C3=O)[C@H](O)C[N+]4(C)C)C1=O [EXIGUAMINE B]
